pIC50: −log10 of the molar value. ≈ marks a conversion by molar mass, not a printed value.
How the values were obtained:
Format in all cases: cell-based
[1] = tested on: Endothelial cell line HUVEC; assay: Inhibitory activity on cells, CellTiter-Glo viability, HUVEC; settings: Homo sapiens, 72 hours treatment
Method in brief: (§1)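 24 h attachment; HUVEC 2000, UM-UC-3/RM-1 3000, LNCaP 5000 cells/well. 8-pt 2.5× dilution from 100 μmol, 72 h, 37 °C/5% CO2. CellTiter-Glo; IC50 from curve fit; max = cells + DMSO vehicle, min = medium only.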

[2] = tested on: Bladder cancer cell line UM-UC-3; assay: Inhibitory activity on cancer cells, CellTiter-Glo viability, UM-UC-3; settings: Homo sapiens, UMUC3, 72 hours treatment
Method in brief: as §1

[3] = tested on: Prostate cancer cell line LNcaP; assay: Inhibitory activity on cancer cells, CellTiter-Glo viability, LNcaP; settings: Homo sapiens, 72 hours treatment
Method in brief: as §1

[4] = tested on: Mouse prostate cancer cell line RM1; assay: Inhibitory activity on cancer cells, CellTiter-Glo viability, RM1; settings: 72 hours treatment
Method: HUVEC (purchased from Allcells Biological Technology (Shanghai) Co., Ltd.); UM-UC-3 (ATCC); LNCaP (ATCC); RM-1 (purchased from Nanjing Cobioer Biosciences Co., Ltd.) (1) On the first day, the cells were seeded in a 96-well plate, and the previous medium was poured off. 5 mL of DPBS was added to wash the cells, and then removed by a pipette and discarded. Then, 1 mL of trypsin (0.25%) was added, and the plate was placed in a cell culture incubator at 37 °C, 5% CO2 for digestion, and taken out after about 2 to 5 minutes. New corresponding medium was added, and pipetted to resuspend the cells evenly, and the cells were then counted with an automated cell counter. Regarding HUVEC, the medium used was endothelial cell complete medium; regarding UM-UC-3, the medium used was 89 v % EMEM+10 v % fetal bovine serum+1 v % penicillin-streptomycin double anti-body; regarding LNcaP, the medium used was 89 v % RPM11640+10 v % fetal bovine serum+1 v % penicillin-streptomycin double anti-body; and regarding RM1, the medium used was 89 v % DMEM+10 v % fetal bovine serum+1 v % penicillin-streptomycin double anti-body. (2) HUVEC cells were seeded in columns 1 to 11 of a 96-well plate (Corning, Cat. No. 3610) at a density of 2000 cells per well in 100 μL of medium, and the medium free of cell was added to the wells of column 12. The other three types of cells were also seeded, wherein UM-UC-3 and RM-1 cells were seeded at a density of 3000 cells per well, and LNCap cells were seeded at a density of 5000 cells per well. Then, the plate was placed in an incubator at 37° C., 5% CO2 for 24 hours. (3) On the second day, the compounds of the present invention and the reference drug nitroxoline (obtained according to the preparation method disclosed in the prior art) were diluted in gradient (2.5 folds, started at 100 μmol) to obtain 8 dose points (there were a total of 8 columns of wells; the first column of wells had the highest concentration, the concentration decreased in turn, and the last column of wells had the lowest concentration). 10 μL of the compound diluted in gradient was added to the 100 μL of cells in column 1 to column 10 with an 8-channel pipette. 10 μL of the corresponding medium containing 0.33 v % DMSO was added to column 11 and column 12. The plate was incubated in an incubator at 37° C., 5% CO2 for 72 hours (note: column 11 was used as MAX well with cells and no compounds; and column 12 was used as MIN well with no cells and no compounds). (4) After treating with the compounds of the present invention for 72 hours, the cell viability detection reagents in the above CellTiter-Glo® assay kit were added to the 96-well plate at 50 μL per well according to the instructions. The plate was shaken on a shaker in the dark for 5 to 10 minutes, and then the cell activity was determined by a multifunctional microplate reader. Finally, the growth inhibition of the compounds of the present invention on the cells was plotted by XLFIT 5.3 software, and the IC50 values of the compounds of the present invention were calculated.

[5] = tested on: Escherichia coli (carbapenem-resistant clinical isolate; ATCC25922); assay: MIC by micro broth dilution (CLSI), Escherichia coli; settings: Escherichia coli; for MIC50 / MIC90: ATCC25922, Clinical strain; for MIC50: read-out: MIC50; for MIC90: read-out: MIC90; for MIC: Standard strain ATCC25922, read-out: MIC
Method in brief: (§2)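 Duplicate same-patient isolates are excluded and quality control strains are run alongside. Inoculum prepared by direct colony suspension to 0.5 McFarland then diluted 100-fold to reach 10^5 CFU/mL in CAMHB. Drug spans 128 to 0.06 mg/L; incubation lasts 20 hours at 35±2° C.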

[6] = tested on: Acinetobacter baumannii (carbapenem-resistant clinical isolates; ATCC19606); assay: MIC by micro broth dilution (CLSI), Acinetobacter baumannii; settings: Acinetobacter baumannii; for MIC50 / MIC90: ATCC19606, Clinical strain; for MIC50: read-out: MIC50; for MIC90: read-out: MIC90; for MIC: Standard strain ATCC19606, read-out: MIC
Method in brief: as §2

[7] = tested on: Staphylococcus aureus (methicillin-resistant and sensitive clinical isolates; ATCC29213); assay: MIC by micro broth dilution (CLSI), Staphylococcus aureus; settings: for MIC50 / MIC90: Clinical strain; for MIC50: read-out: MIC50; for MIC90: read-out: MIC90; for MIC: Standard strain ATCC29213, read-out: MIC
Method in brief: as §2

pIC50 [2]	pIC50 [3]	pIC50 [4]	MIC50 [5] [µg/mL]	MIC90 [5] [µg/mL]	MIC [5] [µg/mL]	MIC50 [6] [µg/mL]	MIC90 [6] [µg/mL]	MIC [6] [µg/mL]	MIC50 [7] [µg/mL]	MIC90 [7] [µg/mL]	MIC [7] [µg/mL]	SMILES	pIC50 [1]
4.63	5.27	4.92	> 128	> 128	> 128	> 128	> 128	> 128	> 128	> 128	> 128	CC(C)(C)C(=O)N1CCN(c2ccnc3c(O)c([N+](=O)[O-])cc(Cl)c23)CC1 [Example 45, 4-(5-Chloro-8-hydroxy-7-nitroquinolin-4-yl)-1-(2,2,2-trimethylacetyl)piperazine]	5.00
6.02	6.06	5.73	> 128	> 128	> 128	> 128	> 128	> 128	32 (≈ 84.3 µM)	64 (≈ 169 µM)	32 (≈ 84.3 µM)	CCOC(=O)C1CCN(c2ccnc3c(O)c([N+](=O)[O-])cc(Cl)c23)CC1 [Example 46, Ethyl 1-(5-chloro-8-hydroxy-7-nitroquinolin-4-yl)piperidine-4-carboxylate]	6.25
5.62	6.01	5.22	> 128	> 128	> 128	> 128	> 128	> 128	16 (≈ 50.5 µM)	32 (≈ 101 µM)	32 (≈ 101 µM)	O=[N+]([O-])c1cc(Cl)c2c(Oc3ccccc3)ccnc2c1O [Example 47, 5-Chloro-7-nitro-4-phenoxyquinolin-8-ol]	5.80
4.98	4.97	4.84	> 128	> 128	> 128	> 128	> 128	> 128	64 (≈ 165 µM)	64 (≈ 165 µM)	64 (≈ 165 µM)	CS(=O)(=O)N1CCN(c2ccnc3c(O)c([N+](=O)[O-])cc(Cl)c23)CC1 [Example 48, 5-Chloro-4-(4-(methylsulfonyl)piperazin-1-yl)-7-nitroquinolin-8-ol]	5.18
5.47	5.54	5.37	> 128	> 128	> 128	> 128	> 128	> 128	> 128	> 128	> 128	CC(C)C(=O)N1CCN(c2ccnc3c(O)c([N+](=O)[O-])cc(Cl)c23)CC1 [Example 50, 4-(5-Chloro-8-hydroxy-7-nitroquinolin-4-yl)-1-(2,2-dimethylacetyl)piperazine]	5.53
5.66	5.82	5.37	> 128	> 128	> 128	> 128	> 128	> 128	1	2	1	Cl.O=[N+]([O-])c1cc(Cl)c2c(-c3ccccc3)ccnc2c1O [Example 51, 5-chloro-7-nitro-4-phenylquinolin-8-ol hydrochloride]	5.77
5.33	6.24	5.85	> 128	> 128	> 128	> 128	> 128	> 128	64 (≈ 168 µM)	128 (≈ 336 µM)	128 (≈ 336 µM)	CCOC(=O)N1CCN(c2ccnc3c(O)c([N+](=O)[O-])cc(Cl)c23)CC1 [Example 52, Ethyl 4-(5-chloro-8-hydroxy-7-nitroquinolin-4-yl)piperazine-1-carboxylate]	6.28
6.07	5.97	5.51	128 (≈ 434 µM)	128 (≈ 434 µM)	128 (≈ 434 µM)	128 (≈ 434 µM)	128 (≈ 434 µM)	128 (≈ 434 µM)	8 (≈ 27.1 µM)	16 (≈ 54.3 µM)	16 (≈ 54.3 µM)	O=[N+]([O-])c1cc(Cl)c2c(OCC3CC3)ccnc2c1O [Example 53, 5-Chloro-4-(cyclopropylmethoxy)-7-nitroquinolin-8-ol]	6.23
5.85	6.60	5.79	32	64	64	128	> 128	64	16	16	16	COCCCOC1CCN(c2ccnc3c(O)c([N+](=O)[O-])cc(Cl)c23)CC1.Cl.Cl [Example 54, 5-chloro-4-(4-(3-methoxypropoxy)piperidin-1-yl)-7-nitroquinolin-8-ol dihydrochloride]	6.30
5.65	6.60	5.54	> 128	> 128	> 128	> 128	> 128	> 128	4 (≈ 11.6 µM)	4 (≈ 11.6 µM)	4 (≈ 11.6 µM)	O=[N+]([O-])c1cc(Cl)c2c(N3CCC(F)(F)CC3)ccnc2c1O [Example 55, 5-Chloro-4-(4,4-difluoropiperidin-1-yl)-7-nitroquinolin-8-ol]	6.10
4.28	4.32	4.16	> 128	> 128	> 128	> 128	> 128	> 128	64 (≈ 199 µM)	64 (≈ 199 µM)	128 (≈ 398 µM)	O=C1CCN(c2ccnc3c(O)c([N+](=O)[O-])cc(Cl)c23)CC1 [Example 56, 1-(5-Chloro-8-hydroxy-7-nitroquinolin-4-yl)piperidin-4-one]	4.49
5.83	5.82	5.84	128 (≈ 415 µM)	128 (≈ 415 µM)	128 (≈ 415 µM)	> 128	> 128	128 (≈ 415 µM)	16 (≈ 51.8 µM)	16 (≈ 51.8 µM)	16 (≈ 51.8 µM)	O=[N+]([O-])c1cc(Cl)c2c(OC3CCCC3)ccnc2c1O [Example 59, 5-Chloro-4-(cyclopentyloxy)-7-nitroquinolin-8-ol]	6.11
5.28	5.28	5.37	> 128	> 128	> 128	> 128	> 128	> 128	16 (≈ 59.6 µM)	32 (≈ 119 µM)	16 (≈ 59.6 µM)	CCOc1ccnc2c(O)c([N+](=O)[O-])cc(Cl)c12 [Example 61, 5-Chloro-4-ethoxy-7-nitroquinolin-8-ol]	5.59

From patent US20240246916A1, “7-NITRO-8-HYDROXYQUINOLINE DERIVATIVES, PREPARATION METHOD THEREFORE AND MEDICAL USE THEREOF” (Jiangsu Yahong Meditech Co., Ltd., priority 2021, published 2024)
